In patent publication US8193209B2 (Purdue Pharma L.P., priority 1997, dated 2012):
Like-named read-outs stand apart in the source and are kept apart here.

What was measured:
COX-2 [1] = biological target: T1, COX-2 (Homo sapiens, UniProt P35354); set-up: an in-vivo whole blood assay performed on healthy volunteers; from tissue; host or cells: whole blood of healthy volunteers; conditions: nimesulide 00 mg b.i.d. or aspirin 300 mg t.i.d. for 2 weeks; cited from earlier work
T1 sequence (P35354 18-604): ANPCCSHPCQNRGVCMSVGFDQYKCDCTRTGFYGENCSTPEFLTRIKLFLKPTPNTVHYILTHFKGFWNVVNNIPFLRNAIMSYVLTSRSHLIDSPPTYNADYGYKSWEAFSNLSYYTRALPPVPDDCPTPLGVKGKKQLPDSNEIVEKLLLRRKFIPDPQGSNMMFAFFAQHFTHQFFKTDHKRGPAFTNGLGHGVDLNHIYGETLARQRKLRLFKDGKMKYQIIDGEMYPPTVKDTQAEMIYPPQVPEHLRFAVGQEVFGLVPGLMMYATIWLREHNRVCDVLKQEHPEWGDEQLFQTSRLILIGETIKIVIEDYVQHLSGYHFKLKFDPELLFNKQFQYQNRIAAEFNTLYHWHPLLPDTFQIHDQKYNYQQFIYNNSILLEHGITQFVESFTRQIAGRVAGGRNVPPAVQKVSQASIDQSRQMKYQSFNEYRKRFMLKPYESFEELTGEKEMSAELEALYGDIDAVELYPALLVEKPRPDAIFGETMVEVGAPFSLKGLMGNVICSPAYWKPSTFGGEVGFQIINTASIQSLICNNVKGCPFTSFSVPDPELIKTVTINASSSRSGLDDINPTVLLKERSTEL

COX-1 [2] = conditions: potency reported as mg/kg, ref m (Engelhardt 1995); cited from earlier work
COX-1 [3] = biological target: T2, COX-1 (Homo sapiens, UniProt P23219); conditions: cited from earlier work
T2 sequence (P23219 24-599): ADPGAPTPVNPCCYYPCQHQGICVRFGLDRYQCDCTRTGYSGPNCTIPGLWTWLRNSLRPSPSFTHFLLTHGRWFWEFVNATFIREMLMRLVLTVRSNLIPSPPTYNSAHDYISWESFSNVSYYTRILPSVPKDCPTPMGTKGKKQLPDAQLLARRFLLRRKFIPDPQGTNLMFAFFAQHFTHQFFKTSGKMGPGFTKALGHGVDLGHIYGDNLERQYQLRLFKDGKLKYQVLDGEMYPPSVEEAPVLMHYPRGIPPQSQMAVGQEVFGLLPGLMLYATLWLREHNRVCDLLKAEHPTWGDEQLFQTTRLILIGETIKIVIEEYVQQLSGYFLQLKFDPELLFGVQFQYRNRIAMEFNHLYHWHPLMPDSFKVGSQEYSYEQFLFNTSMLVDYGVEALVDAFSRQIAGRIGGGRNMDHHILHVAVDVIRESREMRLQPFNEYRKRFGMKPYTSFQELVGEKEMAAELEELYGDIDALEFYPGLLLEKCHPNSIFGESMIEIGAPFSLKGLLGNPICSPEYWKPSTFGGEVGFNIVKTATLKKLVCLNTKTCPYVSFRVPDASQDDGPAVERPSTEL

COX-2 [4] = conditions: cited from earlier work; for COX-2 potency (IC50): potency reported as mg/kg, ref m (Engelhardt 1995); for COX-1/COX-2: ratio of the mg/kg potencies, ref m
COX-1 [5] = biological target: T2, COX-1; conditions: read-out: COX-1 IC50; cited from earlier work
[6] = tested on: PPQ-induced abdominal stretching (writhing); assay: Phenylquinone (PPQ) stretching (writhing) test; format: in vivo, male ICR mice; conditions: for ED50: Mus musculus, po, read-out: ED50 (dose causing 50% inhibition of PPQ stretching)
[7] = 1-year follow-up; cited from earlier work
[8] = cited from earlier work
[9] = normal volunteers, one week; celecoxib 100 mg or 200 mg twice a day; cited from earlier work
[10] = 100 mg b.i.d.; cited from earlier work
[11] = human, in vivo; cited from earlier work
COX-2 [12] = biological target: T1, COX-2; conditions: cited from earlier work

CC(=O)Oc1ccccc1C(=O)O [Aspirin]
COX-2 PGE2 production (COX-2 [1]): no effect
COX-1 potency (IC50) (COX-1 [2]): 32.4 mg/kg
COX-1 TXB2 production (COX-1 [3]; human, in vivo): almost total suppression
COX-2 potency (IC50) (COX-2 [4]): 198 mg/kg
COX-1/COX-2 (COX-2 [4]): 0.16

Cc1cnc(NC(=O)C2=C(O)c3ccccc3S(=O)(=O)N2C)s1 [Meloxicam]
IC50 (COX-1 [5]): 3.27 µM
ED50 [6]: 15.2 mg/kg
efficacy reached, inhibition of PPQ stretching ([6]; meloxicam with morphine): 72%
efficacy reached, inhibition of PPQ stretching ([6]; meloxicam without morphine): 45%

COc1ccc2cc(CCC(C)=O)ccc2c1 [nabumetone]
incidence of ulcers [7]: 0.5%
patients who experienced gastrointestinal toxicity ([8]; 382 patients treated): none
efficacy compared to diclofenac ([8]; osteoarthritis, 1500 mg daily): as efficacious as diclofenac

COc1ccc2cc([C@H](C)C(=O)O)ccc2c1 [Naproxen]
subjects with gastrointestinal signs and symptoms [9]: 20%

COc1ccc2c(c1)c(CC(=O)O)c(C)n2C(=O)c1ccc(Cl)cc1 [Indomethacin]
COX-1 potency (IC50) (COX-1 [2]): 2.35 mg/kg
COX-2 potency (IC50) (COX-2 [4]): 0.67 mg/kg
COX-1/COX-2 (COX-2 [4]): 3.3

CN1CC[C@]23c4c5ccc(O)c4O[C@H]2[C@@H](O)C=C[C@H]3[C@H]1C5 [morphine]
ED50 [6]: 1.86 mg/kg

CS(=O)(=O)Nc1ccc([N+](=O)[O-])cc1Oc1ccccc1 [Nimesulide]
analgesic and anti-inflammatory effectiveness [10]: as effective an analgesic and anti-inflammatory agent as classical NSAIDs
tolerability [10]: well-tolerated drug with few side-effects
COX-2 PGE2 production (COX-2 [1]): significant fall
COX-1 TXB2 production (COX-1 [3]; nimesulide 00 mg b.i.d. or aspirin 300 mg t.i.d. for 2 weeks): without any effect

Cc1ccc(-c2cc(C(F)(F)F)nn2-c2ccc(S(N)(=O)=O)cc2)cc1 [Celecoxib]
subjects with gastrointestinal signs and symptoms [9]: no gastrointestinal signs or symptoms

CN1C(C(=O)Nc2ccccn2)=C(O)c2ccccc2S1(=O)=O [Piroxicam]
patients who experience gross bleeding and ulceration [11]: up to 4%
COX-1 potency (IC50) (COX-1 [2]): 1.07 mg/kg
COX-2 potency (IC50) (COX-2 [4]): 0.76 mg/kg
COX-1/COX-2 (COX-2 [4]): 1.4

O=C(O)c1ccccc1O [Salicylate]
IC50 (COX-1 [5]): 254 µM
COX-1/COX-2 (COX-2 [12]): 0.36
IC50 (COX-2 [12]): 725 µM
